Reference: patent US20120029187A1, “HALOALKYLSULFONANILIDE DERIVATIVE” (Nissan Chemical Industries, Ltd., priority 2009, published 2012)

How the values were obtained:
Format in all cases: in vivo
barnyardgrass [1] = assay: Test Example 1: herbicidal effects in preemergence treatment under submerged conditions; details: dose 2.52 g/a
How it was run: (§1)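 Submerged conditions, 4 cm water over alluvial soil. Weeds sown and 2.5-leaf rice transplanted; compound applied preemergence to water surface, doses in g per are. Greenhouse, 25 to 30° C., three weeks, then 0–5 mortality rating.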

bulrush [2] = assay: as above; details: dose 2.52 g/a
How it was run: as §1

ducksalad [3] = assay: as above; details: dose 2.52 g/a
How it was run: as §1

transplanted rice = assay: Test Example 1: preemergence treatment under submerged conditions, effect on crop; details: dose 2.52 g/a
How it was run: as §1

barnyardgrass [4] = assay: Test Example 2: herbicidal effects during the vegetation period under submerged conditions; details: treatment during the vegetation period under submerged conditions; dose 2.52 g/a
How it was run: (§2)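 Barnyardgrass, bulrush and ducksalad were co-sown in alluvial soil flooded to 4 cm and grown in a greenhouse at 25 to 30° C. At the 1- or 2-leaf stage, water-diluted emulsifiable concentrates went onto the water surface at set doses (g/a). Herbicidal effect was scored three weeks later on a graded scale.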

bulrush [5] = assay: as above; details: treatment during the vegetation period under submerged conditions; dose 2.52 g/a
How it was run: as §2

ducksalad [6] = assay: as above; details: treatment during the vegetation period under submerged conditions; dose 2.52 g/a
How it was run: as §2

Italian ryegrass [7] = assay: Test Example 3: herbicidal effects in soil treatment; details: dose 3.2 g/a
How it was run: (§3)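 Seeds were sown in sterilized diluvial soil and covered with about 1.5 cm of soil. Compounds, formulated as emulsifiable concentrates and diluted with water, were sprayed evenly over the soil surface at set doses in g/a. Herbicidal effect was scored on a rating scale three weeks later.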

barnyardgrass [8] = assay: as above; details: dose 3.2 g/a
How it was run: as §3

common chickweed [9] = assay: as above; details: dose 3.2 g/a
How it was run: as §3

common lambsquater [10] = assay: as above; details: dose 3.2 g/a
How it was run: as §3

common ragweed [11] = assay: as above; details: dose 3.2 g/a
How it was run: as §3

giant foxtail [12] = assay: as above; details: dose 3.2 g/a
How it was run: as §3

large crabgrass [13] = assay: as above; details: dose 3.2 g/a
How it was run: as §3

redroot pigweed [14] = assay: as above; details: dose 3.2 g/a
How it was run: as §3

velvetleaf [15] = assay: as above; details: dose 3.2 g/a
How it was run: as §3

water foxtail [16] = assay: as above; details: dose 3.2 g/a
How it was run: as §3

wild oat [17] = assay: as above; details: dose 3.2 g/a
How it was run: as §3

Italian ryegrass [18] = assay: Test Example 4: herbicidal effect in foliage treatment; details: dose 3.2 g/a, three weeks after application
How it was run: (§4)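 Weeds and crops sown in sterilized diluvial soil under ~1.5 cm cover and grown in greenhouse at 25 to 30° C. At 14 days, water-diluted emulsifiable concentrate sprayed onto foliage at set doses (g/a); herbicidal effect scored on a rating scale three weeks after application.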

barnyardgrass [19] = assay: as above; details: dose 3.2 g/a, three weeks after application
How it was run: as §4

beadstraw = assay: as above; details: dose 3.2 g/a, three weeks after application
How it was run: as §4

common chickweed [20] = assay: as above; details: dose 3.2 g/a, three weeks after application
How it was run: as §4

common lambsquater [21] = assay: as above; details: dose 3.2 g/a, three weeks after application
How it was run: as §4

common ragweed [22] = assay: as above; details: dose 3.2 g/a, three weeks after application
How it was run: as §4

giant foxtail [23] = assay: as above; details: dose 3.2 g/a, three weeks after application
How it was run: as §4

large crabgrass [24] = assay: as above; details: dose 3.2 g/a, three weeks after application
How it was run: as §4

posumbu knotweed = assay: as above; details: dose 3.2 g/a, three weeks after application
How it was run: as §4

redroot pigweed [25] = assay: as above; details: dose 3.2 g/a, three weeks after application
How it was run: as §4

velvetleaf [26] = assay: as above; details: dose 3.2 g/a, three weeks after application
How it was run: as §4

water foxtail [27] = assay: as above; details: dose 3.2 g/a, three weeks after application
How it was run: as §4

wild oat [28] = assay: as above; details: dose 3.2 g/a, three weeks after application
How it was run: as §4

Which results are given for `CC1(C)CN(Cc2ccccc2NS(=O)(=O)C(F)(F)F)C(=O)CO1` [Compound I-15]?
A: barnyardgrass, herbicidal effect (evaluation scale 0-5) (barnyardgrass [1]): 5 (mortality of 90% or above (nearly complete death)); B: bulrush, herbicidal effect (evaluation scale 0-5) (bulrush [2]): 5 (mortality of 90% or above (nearly complete death)); C: ducksalad, herbicidal effect (evaluation scale 0-5) (ducksalad [3]): 5 (mortality of 90% or above (nearly complete death)); a: transplanted rice, effect on crop (evaluation scale 0-5) (transplanted rice): 1 (mortality of at least 5% and less than 20%); A: barnyardgrass, herbicidal effect (evaluation scale 0-5) (barnyardgrass [4]): 5 (mortality of 90% or above (nearly complete death)); B: bulrush, herbicidal effect (evaluation scale 0-5) (bulrush [5]): 5 (mortality of 90% or above (nearly complete death)); C: ducksalad, herbicidal effect (evaluation scale 0-5) (ducksalad [6]): 5 (mortality of 90% or above (nearly complete death)); H: Italian ryegrass, herbicidal effect (evaluation scale 0-5) (Italian ryegrass [7]): 5 (mortality of 90% or above (nearly complete death)); A: barnyardgrass, herbicidal effect (evaluation scale 0-5) (barnyardgrass [8]): 5 (mortality of 90% or above (nearly complete death)); N: common chickweed, herbicidal effect (evaluation scale 0-5) (common chickweed [9]): 4 (mortality of at least 70% and less than 90%); L: common lambsquater, herbicidal effect (evaluation scale 0-5) (common lambsquater [10]): 4 (mortality of at least 70% and less than 90%); J: common ragweed, herbicidal effect (evaluation scale 0-5) (common ragweed [11]): 5 (mortality of 90% or above (nearly complete death)); E: giant foxtail, herbicidal effect (evaluation scale 0-5) (giant foxtail [12]): 3 (mortality of at least 40% and less than 70%); D: large crabgrass, herbicidal effect (evaluation scale 0-5) (large crabgrass [13]): 5 (mortality of 90% or above (nearly complete death)); K: redroot pigweed, herbicidal effect (evaluation scale 0-5) (redroot pigweed [14]): 5 (mortality of 90% or above (nearly complete death)); I: velvetleaf, herbicidal effect (evaluation scale 0-5) (velvetleaf [15]): 5 (mortality of 90% or above (nearly complete death)); G: water foxtail, herbicidal effect (evaluation scale 0-5) (water foxtail [16]): 5 (mortality of 90% or above (nearly complete death)); F: wild oat, herbicidal effect (evaluation scale 0-5) (wild oat [17]): 3 (mortality of at least 40% and less than 70%); H: Italian ryegrass, herbicidal effect (Italian ryegrass [18]): 4 (mortality of at least 70% and less than 90%); A: barnyardgrass, herbicidal effect (barnyardgrass [19]): 5 (mortality of 90% or above (nearly complete death)); O: beadstraw, herbicidal effect (beadstraw): 4 (mortality of at least 70% and less than 90%); N: common chickweed, herbicidal effect (common chickweed [20]): 4 (mortality of at least 70% and less than 90%); L: common lambsquater, herbicidal effect (common lambsquater [21]): 3 (mortality of at least 40% and less than 70%); J: common ragweed, herbicidal effect (common ragweed [22]): 4 (mortality of at least 70% and less than 90%); E: giant foxtail, herbicidal effect (giant foxtail [23]): 4 (mortality of at least 70% and less than 90%); D: large crabgrass, herbicidal effect (large crabgrass [24]): 4 (mortality of at least 70% and less than 90%); M: posumbu knotweed, herbicidal effect (posumbu knotweed): 4 (mortality of at least 70% and less than 90%); K: redroot pigweed, herbicidal effect (redroot pigweed [25]): 3 (mortality of at least 40% and less than 70%); I: velvetleaf, herbicidal effect (velvetleaf [26]): 5 (mortality of 90% or above (nearly complete death)); G: water foxtail, herbicidal effect (water foxtail [27]): 5 (mortality of 90% or above (nearly complete death)); F: wild oat, herbicidal effect (wild oat [28]): 1 (mortality of at least 5% and less than 20%)

Which results are given for `CC(C)COC(=O)N(c1ccccc1CN1COC(c2ccccc2)CC1=O)S(=O)(=O)C(F)(F)F` (centres unmarked) [II-13]?
A: barnyardgrass, herbicidal effect (evaluation scale 0-5) (barnyardgrass [1]): 5 (mortality of 90% or above (nearly complete death)); B: bulrush, herbicidal effect (evaluation scale 0-5) (bulrush [2]): 5 (mortality of 90% or above (nearly complete death)); C: ducksalad, herbicidal effect (evaluation scale 0-5) (ducksalad [3]): 5 (mortality of 90% or above (nearly complete death)); a: transplanted rice, effect on crop (evaluation scale 0-5) (transplanted rice): 0 (mortality of less than 5% (almost ineffective)); A: barnyardgrass, herbicidal effect (evaluation scale 0-5) (barnyardgrass [4]): 5 (mortality of 90% or above (nearly complete death)); B: bulrush, herbicidal effect (evaluation scale 0-5) (bulrush [5]): 5 (mortality of 90% or above (nearly complete death)); C: ducksalad, herbicidal effect (evaluation scale 0-5) (ducksalad [6]): 5 (mortality of 90% or above (nearly complete death)); H: Italian ryegrass, herbicidal effect (evaluation scale 0-5) (Italian ryegrass [7]): 0 (mortality of less than 5% (almost ineffective)); A: barnyardgrass, herbicidal effect (evaluation scale 0-5) (barnyardgrass [8]): 3 (mortality of at least 40% and less than 70%); N: common chickweed, herbicidal effect (evaluation scale 0-5) (common chickweed [9]): 0 (mortality of less than 5% (almost ineffective)); L: common lambsquater, herbicidal effect (evaluation scale 0-5) (common lambsquater [10]): 0 (mortality of less than 5% (almost ineffective)); J: common ragweed, herbicidal effect (evaluation scale 0-5) (common ragweed [11]): 0 (mortality of less than 5% (almost ineffective)); E: giant foxtail, herbicidal effect (evaluation scale 0-5) (giant foxtail [12]): 4 (mortality of at least 70% and less than 90%); D: large crabgrass, herbicidal effect (evaluation scale 0-5) (large crabgrass [13]): 2 (mortality of at least 20% and less than 40%); K: redroot pigweed, herbicidal effect (evaluation scale 0-5) (redroot pigweed [14]): 0 (mortality of less than 5% (almost ineffective)); I: velvetleaf, herbicidal effect (evaluation scale 0-5) (velvetleaf [15]): 0 (mortality of less than 5% (almost ineffective)); G: water foxtail, herbicidal effect (evaluation scale 0-5) (water foxtail [16]): 0 (mortality of less than 5% (almost ineffective)); F: wild oat, herbicidal effect (evaluation scale 0-5) (wild oat [17]): 0 (mortality of less than 5% (almost ineffective)); H: Italian ryegrass, herbicidal effect (Italian ryegrass [18]): 0 (mortality of less than 5% (almost ineffective)); A: barnyardgrass, herbicidal effect (barnyardgrass [19]): 2 (mortality of at least 20% and less than 40%); O: beadstraw, herbicidal effect (beadstraw): 4 (mortality of at least 70% and less than 90%); N: common chickweed, herbicidal effect (common chickweed [20]): 3 (mortality of at least 40% and less than 70%); L: common lambsquater, herbicidal effect (common lambsquater [21]): 0 (mortality of less than 5% (almost ineffective)); J: common ragweed, herbicidal effect (common ragweed [22]): 4 (mortality of at least 70% and less than 90%); E: giant foxtail, herbicidal effect (giant foxtail [23]): 0 (mortality of less than 5% (almost ineffective)); D: large crabgrass, herbicidal effect (large crabgrass [24]): 2 (mortality of at least 20% and less than 40%); M: posumbu knotweed, herbicidal effect (posumbu knotweed): 1 (mortality of at least 5% and less than 20%); K: redroot pigweed, herbicidal effect (redroot pigweed [25]): 0 (mortality of less than 5% (almost ineffective)); I: velvetleaf, herbicidal effect (velvetleaf [26]): 0 (mortality of less than 5% (almost ineffective)); G: water foxtail, herbicidal effect (water foxtail [27]): 0 (mortality of less than 5% (almost ineffective)); F: wild oat, herbicidal effect (wild oat [28]): 0 (mortality of less than 5% (almost ineffective))
